Assay results taken from patent US20240116877A1, “KIT KINASE INHIBITORS AND METHODS OF USE THEREOF” (Deciphera Pharmaceuticals, LLC, priority 2021, published 2024).
Like-named read-outs stand apart in the source and are kept apart here.

How the values were obtained:
[1] = system: Ba/F3 KIT mutant cells; experiment: Ba/F3 mutant KIT Cell Proliferation Assays (resazurin); type: cell-based; conditions: Mus musculus, BaF3
Method: Ba/F3 KIT Mutant Cell Line Transduction and Expansion
Several different KIT cDNA encoding various primary and secondary mutations were cloned into a pLV(Exp]-CMV>(cDNA):IRES:puro vector. These vectors were constructed and packaged by VectorBuilder.
Exponentially grown Ba/F3 cells (1×10^6 cells in 1 ml medium) were infected with 60 μl of viral suspension in a 6-well plate in the presence of mIL-3 (10 ng/ml) and polybrene (7.5 μg/ml) (Vector Builder) and incubated for 16 h. After 16 h, the cells were centrifuged, and viral supernatant was discarded. The cells were then re-suspended in fresh medium and allowed to recover for another day. After 72 h post infection, the cells were seeded with complete medium with mIL-3 and with 1 μg/ml puromycin added to medium for selection. After 48 h, cells without viral infection die, whereas successfully transduced cells were collected and changed to fresh medium with 5 ng/ml of IL-3. After a week or two with gradual withdrawal of mIL3 the cells that can continue to proliferate in the absence of mIL3 were exponentially expanded and were frozen down for banking.
Ba/F3 mutant KIT Cell Proliferation Assays
(§1) A serial dilution of test compound was dispensed into a 384-well black clear bottom plate (Corning, Corning, NY). Six hundred and twenty-five cells were added per well in 50 μL complete growth medium. Plates were incubated for 68 h at 37° C., 5% CO2, 95% humidity. At the end of the incubation period 10 μL of a 440 μM solution of resazurin (Sigma, St. Louis, MO) in PBS was added to each well and incubated for an additional 5 h at 37° C., 5% CO2, 95% humidity. Plates were read on a Synergy2 reader (Biotek, Winooski, VT) using an excitation of 540 nm and an emission of 600 nm. Data was analyzed using Prism software (Graphpad, San Diego, CA) to calculate IC50 values.

[2] = target: c-KIT kinase (uKIT) (Homo sapiens (Human), UniProt P10721); experiment: Biochemical Assay for uKIT (coupled pyruvate kinase/lactate dehydrogenase assay); conditions: Inhibition of biochemical activity of uKIT kinase; 1 mM ATP
Method: Biochemical Assay for uKIT
Activity of c-KIT kinase (SEQ. ID NO. 1 or SEQ. ID NO. 2) was determined spectroscopically using a coupled pyruvate kinase/lactate dehydrogenase assay that continuously monitors the ATP hydrolysis-dependent oxidation of NADH (e.g., Schindler et al. Science (2000) 289: 1938-1942). Assays were conducted in 384-well plates (100 μL final volume) using 16 nM (Decode, SEQ ID No. 1) or 4.36 nM (Signal Chem, SEQ. ID No. 2), 0.7 mg/mL PE4Y substrate, 1.5 units pyruvate kinase, 2.1 units lactate dehydrogenase, 1 mM phosphoenol pyruvate, 0.28 mM NADH and 1 mM ATP in assay buffer (100 mM Tris, pH 7.5, 15 mM MgCl2, 0.5 mM DTT, 0.1% octyl-glucoside, 0.002% (w/v) BSA, and 0.002% Triton X-100). Inhibition of KIT was measured by adding serial diluted test compound (final assay concentration of 1% DMSO). A decrease in absorption at 340 nm was monitored continuously for 6 h at 30° C. on a multi-mode microplate reader (BioTek). The reaction rate was calculated using the 2-3 h time frame. The reaction rate at each concentration of compound was converted to percent inhibition using controls (i.e., reaction with no test compound and reaction with a known inhibitor) and IC50 values were calculated using software routines in Prism (GraphPad software).

[3] = system: GIST 430 cells; experiment: GIST 430 Cell Proliferation Assay (resazurin); type: cell-based; conditions: Homo sapiens; GIST430 cell proliferation
Method: GIST 430 Cell Proliferation Assay
as §1, with “a 96-well” for “a 384-well”, “NY). Five thousand” for “NY). Six hundred and twenty-five”, “in 200” for “in 50”, “for 115” for “for 68”, “at 37 degrees Celsius,” for “at 37° C.,”, “period 40” for “period 10”

[4] = Ba/F3 KIT AYdup-V654A mutant cell proliferation, read-out: AYdup-V654A IC50
[5] = Ba/F3 KIT exon11del-V654A mutant cell proliferation, read-out: exon11del-V654A IC50
[6] = Ba/F3 KIT exon11del-Y823D mutant cell proliferation, read-out: exon11del-Y823D IC50

c-KIT kinase (uKIT), sequence (P10721 other isoform, or with tags, fused parts or gaps): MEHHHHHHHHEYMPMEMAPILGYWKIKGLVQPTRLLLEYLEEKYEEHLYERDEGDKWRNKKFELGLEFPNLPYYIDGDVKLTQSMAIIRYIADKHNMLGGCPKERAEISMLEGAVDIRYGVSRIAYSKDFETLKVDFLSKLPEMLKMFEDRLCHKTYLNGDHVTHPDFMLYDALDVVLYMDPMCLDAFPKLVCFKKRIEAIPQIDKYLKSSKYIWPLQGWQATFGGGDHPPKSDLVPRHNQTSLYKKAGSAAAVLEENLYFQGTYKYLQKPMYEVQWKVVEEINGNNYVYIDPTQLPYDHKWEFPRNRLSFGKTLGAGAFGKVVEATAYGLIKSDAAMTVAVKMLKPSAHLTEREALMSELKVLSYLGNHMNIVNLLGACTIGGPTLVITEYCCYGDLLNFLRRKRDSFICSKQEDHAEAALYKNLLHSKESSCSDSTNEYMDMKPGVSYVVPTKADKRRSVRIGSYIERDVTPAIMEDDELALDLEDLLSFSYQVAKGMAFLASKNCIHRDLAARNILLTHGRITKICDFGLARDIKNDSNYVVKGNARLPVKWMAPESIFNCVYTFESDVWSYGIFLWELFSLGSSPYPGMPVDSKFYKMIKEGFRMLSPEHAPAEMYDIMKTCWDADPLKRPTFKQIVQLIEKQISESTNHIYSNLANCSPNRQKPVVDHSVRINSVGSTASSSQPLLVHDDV

SMILES | IC50 [1, 4] [nM] | IC50 [1, 5] [nM] | IC50 [1, 6] [nM] | IC50 [2] [nM] | IC50 ([1]; Ba/F3 KIT AYdup mutant cell proliferation, read-out: AYdup IC50) [nM] | IC50 ([1]; Ba/F3 KIT AYdup-D816G mutant cell proliferation, read-out: AYdup-D816G IC50) [nM] | IC50 [3] [nM]
COc1cc2ncnc(Nc3ccc(NC(=O)NCCC(C)(C)C#N)cc3)c2cc1OC [Example 218] | 100 to 1000 | > 1000 | > 1000 | – | – | – | –
COCCOc1cc(F)c2c(Nc3ccc(NC(=O)NCC4CCOCC4)cc3)ncnc2c1 [Example 13] | – | – | – | 10 to 100 | – | – | 10 to 100
COCCOc1ccc2ncnc(Nc3ccc(NC(=O)NCCC(C)(C)OC)cc3)c2c1F [Example 215] | 100 to 1000 | 100 to 1000 | 100 to 1000 | 10 to 100 | – | – | –
COCCOc1ccc2ncnc(Nc3ccc(NC(=O)NCCC(C)(C)C#N)cc3)c2c1F [Example 216] | 100 to 1000 | 100 to 1000 | 100 to 1000 | 10 to 100 | – | – | –
COCCCc1ccc2c(Nc3ccc(NC(=O)CC(=O)NCC(C)(C)C)cc3)cnnc2c1 [Example 193] | – | – | – | 10 to 100 | – | – | –
COCCOc1cc(F)c2c(Nc3ccc(NC(=O)CC(=O)N4CCC[C@@H]4C(C)C)cc3)ncnc2c1 [Example 214] | 10 to 100 | 10 to 100 | 10 to 100 | 10 to 100 | – | – | –
COc1cc2ncnc(Nc3ccc(NC(=O)NCCC(C)(C)OC)cc3)c2cc1OC [Example 210] | > 1000 | > 1000 | > 1000 | 10 to 100 | – | – | –
CC(C)(F)CCNC(=O)Nc1ccc(Nc2ncnc3cc(OCC(=O)O)cc(F)c23)cc1 [Example 224] | – | – | – | 10 to 100 | – | – | –
COCCOc1cc(F)c2c(Nc3ccc(NC(=O)C(=O)NC(C)(C)C)cc3)ncnc2c1 [Example 134] | > 1000 | 100 to 1000 | > 1000 | > 1000 | – | – | –
CN(C)CCOc1cc(F)c2c(Nc3ccc(NC(=O)NCCC(C)(C)C#N)cc3)ncnc2c1 [Example 80] | – | > 1000 | – | > 1000 | – | – | –
COCCOc1ccc2ncnc(Nc3ccc(NC(=O)CC(=O)NC(C)(C)C)cc3)c2c1F [Example 208] | > 1000 | > 1000 | > 1000 | > 1000 | – | – | –
CC(C)(F)CCNC(=O)Nc1ccc(Nc2ncnc3cc(O[C@@H]4CCOC4)cc(F)c23)cc1 [Example 180] | > 1000 | > 1000 | 100 to 1000 | – | – | – | > 1000
COc1cc2ncnc(Nc3ccc(NC(=O)NCCC(C)(C)F)cc3)c2cc1OC [Example 209] | > 1000 | 100 to 1000 | > 1000 | 10 to 100 | – | – | –
COc1cc(F)c2c(Nc3ccc(NC(=O)NCCC(C)(C)F)cc3)ncnc2c1 [Example 203] | 10 to 100 | 10 to 100 | 10 to 100 | ≤ 10 | – | – | –
COc1cc(F)c2c(Nc3ccc(NC(=O)NCCC(C)(C)C#N)cc3)ncnc2c1 [Example 219] | 10 to 100 | 10 to 100 | 10 to 100 | 10 to 100 | – | – | –
COCCOc1cc2ncnc(Nc3ccc(NC(=O)NCCC(C)(C)F)cc3)c2cc1OCCOC [Example 222] | – | – | – | 10 to 100 | – | – | –
CC(C)(F)CCNC(=O)Nc1ccc(Nc2ncnc3cc(O[C@H]4CCOC4)cc(F)c23)cc1 [Example 160] | 10 to 100 | 10 to 100 | 10 to 100 | – | ≤ 10 | 10 to 100 | 10 to 100
COCCOc1ccc2ncnc(Nc3ccc(NC(=O)CC(=O)NC4CCCC4)cc3)c2c1F [Example 201] | 100 to 1000 | > 1000 | > 1000 | 100 to 1000 | – | – | –
COCCOc1cc(F)c2c(Nc3ccc(NC(=O)CC(=O)N4[C@H](C)COC[C@@H]4C)cc3)ncnc2c1 [Example 212] | 100 to 1000 | > 1000 | > 1000 | – | – | – | –
COCCOc1ccc2ncnc(Nc3ccc(NC(=O)CC(=O)NC4CCC4)cc3)c2c1F [Example 207] | 100 to 1000 | > 1000 | > 1000 | 100 to 1000 | – | – | –
COCCOc1cc(F)c2c(Nc3ccc(NC(=O)CCC(=O)NC(C)C)cc3)ncnc2c1 [Example 87] | 100 to 1000 | 100 to 1000 | – | 10 to 100 | – | – | –
COCCOc1cc(F)c2c(Nc3ccc(NC(=O)CC(=O)N4[C@@H](C)COC[C@@H]4C)cc3)ncnc2c1 [Example 199] | > 1000 | > 1000 | > 1000 | 100 to 1000 | – | – | –
COCCOc1ccc2ncnc(Nc3ccc(NC(=O)NCCC(C)(C)F)cc3)c2c1F [Example 200] | > 1000 | > 1000 | > 1000 | 100 to 1000 | – | – | –
COc1cc2ncnc(Nc3ccc(NC(=O)CC(=O)NCC(C)(C)C)cc3)c2cc1OCCCN1CCOCC1 [Example 206] | 100 to 1000 | > 1000 | > 1000 | 100 to 1000 | – | – | –
COc1cc(F)c2c(Nc3ccc(NC(=O)NCCC(C)(C)OC)cc3)ncnc2c1 [Example 202] | 10 to 100 | 10 to 100 | 10 to 100 | 10 to 100 | – | – | –

Now from value to molecule, other results behind:

IC50 [1, 4] [nM] | IC50 [1, 5] [nM] | IC50 [1, 6] [nM] | IC50 [2] [nM] | IC50 ([1]; Ba/F3 KIT AYdup mutant cell proliferation, read-out: AYdup IC50) [nM] | IC50 ([1]; Ba/F3 KIT AYdup-D816G mutant cell proliferation, read-out: AYdup-D816G IC50) [nM] | SMILES | IC50 [3] [nM]
> 1000 | > 1000 | > 1000 | > 1000 | – | – | COCCOc1ccc2c(Nc3ccc(NC(=O)CC(=O)NCC(C)(C)C)cn3)ccnc2c1 [Example 205] | –
100 to 1000 | > 1000 | > 1000 | 100 to 1000 | – | – | COCCOc1ccc2ncnc(Nc3ccc(NC(=O)CC(=O)NCC(C)(C)C)cc3)c2c1F [Example 217] | –
10 to 100 | 100 to 1000 | 10 to 100 | 10 to 100 | – | – | COCCOc1cc(OC)c2c(Nc3ccc(NC(=O)CC(=O)NCC(C)(C)C)cc3)ncnc2c1 [Example 204] | –
100 to 1000 | 100 to 1000 | 10 to 100 | ≤ 10 | – | – | COCCOc1ccc2c(Nc3ccc(NC(=O)NCCC(C)(C)F)cc3)ncnc2c1 [Example 220] | –
– | – | – | 100 to 1000 | – | – | COCCOc1ccc2c(Nc3ccc(NC(=O)NCCC(C)(C)F)cn3)ncnc2c1 [Example 227] | –
– | – | – | 10 to 100 | – | – | COCCOc1ccc2c(Nc3ccc(NC(=O)NCCC(C)(C)OC)cn3)ncnc2c1 [Example 228] | –
10 to 100 | 100 to 1000 | 100 to 1000 | 10 to 100 | – | – | COCCOc1ccc2c(Nc3ccc(NC(=O)CC(=O)NCC(C)(C)C)cc3)ncnc2c1 [Example 221] | –
– | – | – | 100 to 1000 | – | – | COCCOc1ccc2c(Nc3ccc(NC(=O)CC(=O)NCC(C)(C)C)cn3)ncnc2c1 [Example 229] | –
– | – | – | 100 to 1000 | – | – | COCCOc1ccc2c(Nc3ccc(NC(=O)NCCC(C)(C)C#N)cn3)ncnc2c1 [Example 226] | –
– | – | – | ≤ 10 | – | – | COCCOc1ccc2c(Nc3ccc(NC(=O)NCCC(C)(C)OC)cc3)ncnc2c1 [Example 225] | –
10 to 100 | 10 to 100 | 10 to 100 | 10 to 100 | – | – | COc1cc(F)c2c(Nc3ccc(NC(=O)CC(=O)NCC(C)(C)C)cc3)ncnc2c1 [Example 211] | –
100 to 1000 | > 1000 | > 1000 | 10 to 100 | – | – | COc1cc2ncnc(Nc3ccc(NC(=O)CC(=O)NCC(C)(C)C)cc3)c2cc1OC [Example 213] | –
– | – | – | 100 to 1000 | – | – | COCCOc1ccc2c(Nc3ccc(NC(=O)CC(=O)NCC(C)(C)C)cc3)ccnc2c1 [Example 223] | –
